This passage reports GI50 and TGI results from PubChem BioAssay (NCI).

Some test systems named below: SK-OV-3 ovarian; OVCAR-4 ovarian; HCT-116 colon; SNB-19 CNS; HOP-92 NSCLC; A549 NSCLC; HL-60(TB) leukemia; A498 renal; OVCAR-3 ovarian; NCI-H226 lung.
What all share (experiment): inhibition of tumour cell growth, NCI panel, 48 h

Values joined by “and” are separate entries in the source; they are usually repeats but may differ in a detail not shown here. Equal entries are not always repeated.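 Assay format: 96-well plates, 48-hour exposure. Here, GI50 denotes the concentration required for 50% inhibition of growth. TGI denotes the concentration required for complete inhibition of growth.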

Regarding `COc1cc(C2c3cc4c(cc3[C@@H](Nc3ccc(C(=O)O)cc3)C3COC(=O)[C@H]23)OCO4)cc(OC)c1O` (stereo partly specified), in the experiment on SK-OV-3 ovarian, the GI50 was 34.4 µM and 15.3 µM. Besides, the TGI in the experiment with SK-OV-3 ovarian was over 100 µM; in the experiment on OVCAR-4 ovarian, over 100 µM; in the experiment with HCT-116 colon, 43.9 µM and > 17.5 µM; in the experiment on SNB-19 CNS, over 100 µM; in the experiment with HOP-92 NSCLC, 18.5 µM and > 17.5 µM; with A549 NSCLC, over 100 µM. Further, the TGI with HL-60(TB) leukemia was 22.8 µM and 16.7 µM; in the experiment on A498 renal, 68.8 µM and > 17.5 µM; in the experiment with OVCAR-3 ovarian it was 66.9 µM and > 17.5 µM; in the experiment on NCI-H226 lung, 15.8 µM and 13.9 µM.
On to `CCCCCCNC(=O)C1=C(C)NC(C)=C(C(=O)NCCCCCC)C1`, for which the TGI in the experiment with SK-OV-3 ovarian, in the experiment on OVCAR-4 ovarian, in the experiment with HCT-116 colon, in the experiment on SNB-19 CNS, in the experiment on HOP-92 NSCLC and with A549 NSCLC was over 100 µM in each case. Further, the TGI with HL-60(TB) leukemia, with A498 renal, in the experiment with OVCAR-3 ovarian and in the experiment on NCI-H226 lung was over 100 µM throughout.
For `COc1cc2c(cc1OCc1ccccc1)N=C[C@@H]1C/C(=C/C(=O)NCCCN3C(=O)c4cccc5cccc(c45)C3=O)CN1C2=O`, the GI50 was 8.35 µM in the experiment with SK-OV-3 ovarian; 2.63 µM in the experiment on OVCAR-4 ovarian; 0.538 µM in the experiment on HCT-116 colon; 0.348 µM in the experiment with SNB-19 CNS; 0.724 µM in the experiment with HOP-92 NSCLC; 3.05 µM in the experiment on A549 NSCLC. Further, the GI50 in the experiment on HL-60(TB) leukemia is 0.171 µM; with A498 renal, 1.45 µM; in the experiment with OVCAR-3 ovarian it was 0.273 µM; with NCI-H226 lung, 2.82 µM. Moreover, the TGI in the experiment with SK-OV-3 ovarian is 33.5 µM; with OVCAR-4 ovarian, over 100 µM; with HCT-116 colon it was over 100 µM; with SNB-19 CNS it was over 56.7 µM; in the experiment on HOP-92 NSCLC, 4.76 µM; in the experiment on A549 NSCLC, over 100 µM. Besides, the TGI was over 23.3 µM in the experiment on HL-60(TB) leukemia, 4.07 µM in the experiment on A498 renal, 3.72 µM in the experiment on OVCAR-3 ovarian and over 100 µM in the experiment on NCI-H226 lung.
In the case of `COc1cc(OC2OC(C)C(O)C(O)C2O)cc2oc(-c3ccc(O)cc3)c(CC=C(C)C)c(=O)c12` (stereo unspecified), the GI50 was 20.8 µM in the experiment on SK-OV-3 ovarian; 2.06 µM with OVCAR-4 ovarian; 8.15 µM in the experiment on HCT-116 colon; 15.3 µM in the experiment with SNB-19 CNS; 12.4 µM in the experiment on HOP-92 NSCLC; 22.8 µM in the experiment with A549 NSCLC. Also, the GI50 with HL-60(TB) leukemia was 3.5 µM; in the experiment on A498 renal, 29.8 µM; in the experiment on OVCAR-3 ovarian it was 17.1 µM; in the experiment with NCI-H226 lung, 21.9 µM. Also, the TGI amounted to 45.4 µM in the experiment with SK-OV-3 ovarian; 18.9 µM in the experiment with OVCAR-4 ovarian; 20.8 µM in the experiment on HCT-116 colon; 39.2 µM with SNB-19 CNS; 54.8 µM with HOP-92 NSCLC; 68.5 µM in the experiment on A549 NSCLC. The TGI was 16.2 µM with HL-60(TB) leukemia, 84.2 µM in the experiment on A498 renal, 66.3 µM in the experiment on OVCAR-3 ovarian and 69.7 µM with NCI-H226 lung.
